Reference: the NIST ThermoML archive (doi:10.1021/je1007907)

Details: Liquid

CCCCn1cc[n+](C)c1.F[B-](F)(F)F [1-butyl-3-methylimidazolium tetrafluoroborate]
Details | mass density [kg/m3]
239.75 K, 1875.4 kPa | 1243.62
244.15 K, 9187.2 kPa | 1243.32
244.15 K, 30106 kPa | 1251.69
250.8 K, 41033 kPa | 1251.23
251.15 K, 20631 kPa | 1242.83
251.62 K, 1431.5 kPa | 1234.33
256.79 K, 51047 kPa | 1250.8
257.25 K, 10286 kPa | 1233.95
257.26 K, 30540 kPa | 1242.41
262.28 K, 59764 kPa | 1250.41
263.49 K, 40569 kPa | 1241.97
263.7 K, 20360 kPa | 1233.5
264.47 K, 1197.4 kPa | 1225.08
269.79 K, 50298 kPa | 1241.52
270.25 K, 9963.8 kPa | 1224.68
270.25 K, 30434 kPa | 1233.04
275.57 K, 59083 kPa | 1241.11
276.95 K, 19845 kPa | 1224.21
276.97 K, 40555 kPa | 1232.57
278.13 K, 1660 kPa | 1215.35
283.48 K, 50231 kPa | 1232.1
284.06 K, 30274 kPa | 1223.71
284.1 K, 10163 kPa | 1214.93
290.09 K, 59872 kPa | 1231.63
291.27 K, 40686 kPa | 1223.19
291.46 K, 20613 kPa | 1214.42
292.09 K, 1445.8 kPa | 1204.99
292.09 K, 1940.4 kPa | 1204.98
298.12 K, 105.9 kPa | 1201.65
298.12 K, 9550.8 kPa | 1204.57
298.13 K, 10109 kPa | 1204.56
298.14 K, 10428 kPa | 1204.76
298.14 K, 29887 kPa | 1213.94
298.58 K, 50942 kPa | 1222.67
305.03 K, 19306 kPa | 1204.07
305.53 K, 898.6 kPa | 1194.9
305.54 K, 60508 kPa | 1222.17
305.67 K, 40148 kPa | 1213.41
313.03 K, 9790.3 kPa | 1194.22
313.04 K, 29821 kPa | 1203.5
313.04 K, 30149 kPa | 1203.7
313.05 K, 10270 kPa | 1194.38
313.06 K, 29280 kPa | 1203.51
313.61 K, 50546 kPa | 1212.83
320.1 K, 328.6 kPa | 1184.62
320.51 K, 19693 kPa | 1193.85
321.4 K, 60815 kPa | 1212.26
321.61 K, 40890 kPa | 1202.88
327.98 K, 48935 kPa | 1202.42
328.18 K, 10050 kPa | 1184.05
328.18 K, 28863 kPa | 1193.3
328.18 K, 29052 kPa | 1193.14
328.18 K, 29263 kPa | 1193.3
328.22 K, 10050 kPa | 1184.05
336.35 K, 39210 kPa | 1192.7
336.68 K, 20276 kPa | 1183.44
337.09 K, 59633 kPa | 1201.76
344.2 K, 29113 kPa | 1182.9
344.31 K, 48811 kPa | 1192.12
353.68 K, 59697 kPa | 1191.42
354.16 K, 40617 kPa | 1182.17
